In PubChem BioAssay AID608 (Sanford-Burnham Center for Chemical Genomics, 2007):
Active and inactive are the calls of the source. The rule behind the calls is not given here.

What follows are compounds tested against Peptidyl-prolyl cis-trans isomerase FKBP1A (Homo sapiens) (UniProt P62942) (assay: small-molecule binding to FKBP12 – biophysical, NMR detection (AID 608)). Conditions: purified FKBP12.
Sequence of Peptidyl-prolyl cis-trans isomerase FKBP1A (Homo sapiens) (P62942 whole entry, looked up): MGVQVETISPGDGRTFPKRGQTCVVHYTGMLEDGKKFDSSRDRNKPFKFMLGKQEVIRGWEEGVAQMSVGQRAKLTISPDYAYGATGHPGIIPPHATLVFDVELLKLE

| SMILES | Kd |
| --- | --- |
| CC(=O)O[C@H]1C[C@@H](OC(C)=O)C(C)(C)C2C[C@@H](O)[C@]3(C)C(CC[C@@]4(C)[C@H](c5ccoc5)OC(=O)[C@H]5O[C@]543)[C@]21C (some centres undefined) | > 4 mM (inactive) |
| Cn1c(SCCC(=O)O)nnc1-c1cccnc1 | > 4 mM (inactive) |
| CCOC(=O)c1c(C)nc2ncccn12 | > 4 mM (inactive) |
| CC(=O)Nc1ccc(S(=O)(=O)N(C)C)cc1 | > 4 mM (inactive) |
| c1cc2c(cc1[C@H]1OC[C@H]3[C@@H]1CO[C@H]3c1ccc3c(c1)OCO3)OCO2 | > 4 mM (inactive) |
| Cc1nnsc1C(=O)Nc1cccc(S(N)(=O)=O)c1 | > 4 mM (inactive) |
| CC(C)(C)CC(=O)NNC(=O)c1cnccn1 | > 4 mM (inactive) |
| O=C1CCC(=O)N1c1ccc(F)cc1 | > 4 mM (inactive) |
| CCOC(=O)CC1NCCNC1=O (centres undefined) | > 4 mM (inactive) |
| O=c1nc(N2CCCCC2)nc2n1CCO2 | > 4 mM (inactive) |
| C[C@@H]1O[C@@H](O[C@H]2[C@@H](Oc3cc(O)c4c(c3)O[C@H](c3ccc(O)cc3)CC4=O)O[C@H](CO)[C@@H](O)[C@@H]2O)[C@H](O)[C@H](O)[C@H]1O | > 4 mM (inactive) |
| O=C1OCCC1Sc1nc2ccccc2c(=O)[nH]1 (centres undefined) | > 4 mM (inactive) |
| COC(=O)C1COCCN1C(=O)C(F)(F)Sc1ccc(C(C)C)cc1 (centres undefined) | 0.19 mM |
| COC(=O)c1cncc(C(=O)OC)c1 | > 4 mM (inactive) |
| Cc1cc(=O)n(C(N)=S)[nH]1 | > 4 mM (inactive) |
| C=CCCCCCCCCCCCc1ccco1 | > 4 mM (inactive) |
| OCn1nnn(-c2ccccc2)c1=S | > 4 mM (inactive) |
| O=C(Nc1nnc(-c2ccco2)o1)c1ccc([N+](=O)[O-])o1 | > 4 mM (inactive) |
| Cn1nnc2cc(C(=O)Nc3cccnc3)ccc21 | > 4 mM (inactive) |
| O=C(Nc1ccc2c(c1)OCO2)c1cccc(F)c1 | > 4 mM (inactive) |

| SMILES | Kd |
| --- | --- |
| OCCNc1ccccn1 | > 4 mM (inactive) |
| c1cncc(C2CCCCN2)c1 (centres undefined) | > 4 mM (inactive) |
| O=C1Nc2ccccc2C12OCCO2 | > 4 mM (inactive) |
| Cc1c(C(=O)Nc2ccccn2)oc2ccccc12 | > 4 mM (inactive) |
| O=c1c(-c2ccco2)[n+]([O-])c2ccccc2n1O | > 4 mM (inactive) |
| C=CCNC(=O)c1nn2cccnc2c1Cl | > 4 mM (inactive) |
| CC(=O)Nc1ccn(-c2ccccc2)n1 | > 4 mM (inactive) |
| Cn1c(O)c(C2=NC(=S)NC2=O)c2ccccc21 | > 4 mM (inactive) |
| CC(=O)Nc1ccc(S(N)(=O)=O)cc1 | > 4 mM (inactive) |
| O=C(NN1C(=O)CSC1=S)c1ccccc1 | > 4 mM (inactive) |
| Cc1ccn(S(=O)(=O)c2ccc(C(C)(C)C)cc2)n1 | > 4 mM (inactive) |
| Cc1nc2ccc(C(=O)O)cc2[nH]1 | > 4 mM (inactive) |
| c1ccc2c(c1)nc(-c1cscn1)n2Cc1ccc(-c2nn[nH]n2)cc1 | inactive |
| COc1c(O)cccc1O | > 4 mM (inactive) |
| O=C(/C=C1\SC(=O)NC1=O)NCc1ccccc1 | > 4 mM (inactive) |
| COc1ccc(C2=CC(=O)C=CC2=O)cc1 | > 4 mM (inactive) |
| CNCc1ccco1 | > 4 mM (inactive) |
| CC(O)(C(=O)O)c1ccccc1 (centres undefined) | > 4 mM (inactive) |
| CC(=O)Nc1ccc(S(=O)(=O)Nc2cc(C)on2)cc1 | > 4 mM (inactive) |
| Cn1c(SCC(N)=O)nnc1-c1c[nH]c2ccccc12 | > 4 mM (inactive) |

| SMILES | Kd |
| --- | --- |
| Cc1ccccc1CSc1nncn1N | > 4 mM (inactive) |
| CCCc1cc(=O)[nH]c2nnc(SCC(C)=O)n12 | > 4 mM (inactive) |
| CN(C)C(=S)Nc1nc2ccccc2s1 | 0.152 mM |
| Nc1cc(=O)[nH]c(=O)n1Cc1ccco1 | > 4 mM (inactive) |
| CC(=O)c1c(O)n(C)c(=S)n(C)c1=O | > 4 mM (inactive) |
| NC(=O)c1ccccc1NC(=O)C1CCCO1 (centres undefined) | > 4 mM (inactive) |
| O=C(O)c1ccc2c(c1)OCO2 | > 4 mM (inactive) |
| CC(=O)NC(C)(C)C1CC=C(C)/C(=N\O)C1 (centres undefined) | > 4 mM (inactive) |
| c1ccc2c(c1)nc(-c1cscn1)n2CCCCc1nn[nH]n1 | inactive |
| O=C(O)C1=C[C@@H](O)[C@@H](O)[C@H](O)C1 | > 4 mM (inactive) |
| O=C(O)c1ccccc1N1CCOCC1 | > 4 mM (inactive) |
| CC(C)n1c(Nn2cnnc2)nc2ccccc21 | > 4 mM (inactive) |
| Cn1nc(C(C)(C)C)cc1N | > 4 mM (inactive) |
| CC[C@@H]1[C@@H](O)N2C3C[C@H]1C1C(O)[C@]4(C[C@@H]12)c1ccccc1N(C)[C@@H]34 (some centres undefined) | > 4 mM (inactive) |
| OCc1ccc(N2CCOCC2)nc1 | > 4 mM (inactive) |
| O=C1C=CC(=O)N1c1ccccc1O | > 4 mM (inactive) |
| NC(=O)C1CCN(c2nccc(C(F)(F)F)n2)CC1 | > 4 mM (inactive) |
| Nc1cccc(NC(=O)c2cccs2)c1 | > 4 mM (inactive) |
| Cc1onc(-c2ccccc2)c1C(=O)O | > 4 mM (inactive) |
